Experimental data taken from ChEMBL document CHEMBL5360561, “Design, synthesis and biological evaluation of fluorinated selective estrogen receptor degraders (FSERDs) --- A promising strategy for advanced ER positive breast cancer” (Eur J Med Chem, 2023).
pIC50: −log10 of the molar value. Calls of active or inactive are those of the source. The calls are words filed in the database; no cut-off is given here.

Key:
[1] = system: MCF7; experiment: Antiproliferative activity against human MCF7 cells assessed as cell growth inhibition incubated for 5 days by MTT assay; assay type: functional, cell-based; conditions: MCF7, 120 h
[2] = system: MCF7; experiment: Induction of ER degradation in human MCF7 cells at 10 uM incubated for 24 hrs by Western blot analysis; assay type: cell-based
[3] = system: Ishikawa; experiment: Antiproliferative activity against human Ishikawa cells assessed as cell growth inhibition at 20 uM incubated for 3 days by MTT assay; assay type: functional; conditions: for inhibition at 20 µM: 72 h, time 3 day; for inhibition: time 3.0 day
[4] = Toxicity in Sprague-Dawley rat uterus assessed as change in uterine wet weight at 30 mg/kg, po for 2 days consecutively; assay type: organism-based; conditions: in vivo, 48 h, time 2 day
[5] = system: MCF7; experiment: Antitumor activity against human MCF7 cells xenografted in nude mouse assessed as tumor growth inhibition at 30 mg/kg,po for 30 days daily; assay type: functional, organism-based; conditions: time 30.0 day
[6] = system: MCF7; experiment: Induction of cell cycle arrest in human MCF7 cells assessed as accumulation at G0/G1 phase at 10 uM incubated for 24 hrs by flow cytometry (Rvb= 46.53 +/- 0.44%); assay type: functional
[7] = system: MCF7; experiment: Stabilization of ER in human MCF7 cells at 10 uM incubated for 24 hrs by Western blot analysis; assay type: cell-based
[8] = system: MCF7; experiment: Antitumor activity against human MCF7 cells xenografted in nude mouse assessed as tumor growth inhibition at 10 mg/kg,po for 30 days; assay type: functional, organism-based; conditions: time 30.0 day

SMILES	pIC50 [1]	Activity [2]	inhibition at 20 µM [3] [%]	inhibition [3]	Activity [4]	Activity [5]	Activity [6] [%]	Activity [7]	Activity [8]
Cc1cc(Oc2c(C(=O)c3ccccc3)sc3cc(F)ccc23)ccc1/C=C/C(=O)O	6.17	Active	19	–	–	–	–	–	–
CC(C)c1ccccc1C(=O)c1sc2cc(F)ccc2c1Oc1ccc(/C=C/C(=O)O)cc1	6.49	Active	–	inactive	–	–	–	–	–
O=C(O)/C=C/c1ccc(Oc2c(C(=O)c3cccc(F)c3)sc3cc(F)ccc23)cc1	5.23	Active	9	–	–	–	–	–	–
Cc1cc(/C=C/C(=O)O)ccc1Oc1c(C(=O)c2ccccc2)sc2cc(F)ccc12	5.42	Active	6	–	–	–	–	–	–
Cc1cccc(C)c1C(=O)c1sc2cc(F)ccc2c1Oc1ccc(/C=C/C(=O)O)cc1	6.55	Active	–	inactive	–	–	–	–	–
Cc1cc(F)ccc1C(=O)c1sc2cc(F)ccc2c1Oc1ccc(/C=C/C(=O)O)cc1	6.44	Active	11	–	–	–	–	–	–
CC/C(=C(\c1ccccc1)c1ccc(OCCN(C)C)cc1)c1ccccc1 [TAMOXIFEN]	5.63	–	50	–	Toxic	Active	67.34	Active	–
O=C(O)/C=C/c1ccc(Oc2c(C(=O)c3cccc4ccccc34)sc3cc(F)ccc23)cc1	5.07	Active	8	–	–	–	–	–	–
C[C@]12CC[C@@H]3c4ccc(O)cc4C[C@@H](CCCCCCCCC[S+]([O-])CCCC(F)(F)C(F)(F)F)[C@H]3[C@@H]1CC[C@@H]2O (stereo partly drawn) [FULVESTRANT]	10.00	–	–	inactive	–	–	62.28	–	Active
Cc1cc(C)cc(C(=O)c2sc3cc(F)ccc3c2Oc2ccc(/C=C/C(=O)O)cc2)c1	5.59	Active	–	inactive	–	–	–	–	–
Cc1cc(Cl)cc(C)c1C(=O)c1sc2cc(F)ccc2c1Oc1ccc(/C=C/C(=O)O)cc1	6.25	Active	6	–	–	–	–	–	–
COc1ccc(C(=O)c2sc3cc(F)ccc3c2Oc2ccc(/C=C/C(=O)O)cc2)cc1	6.47	Active	53	–	–	–	–	–	–
O=C(O)/C=C/c1ccc(Oc2c(C(=O)c3ccc4ccccc4c3)sc3cc(F)ccc23)cc1	5.32	Active	25	–	–	–	–	–	–
